{
  "source": "patent US7524861B2",
  "about": "“Process for the preparation of a hydrate of an anthranilic acid derivative” (priority 2002, dated 2009)",
  "key": {"[1]": {"assay": "Hygroscopicity study (weight change on storage at 33-95% RH, KF water content)", "type": "physicochemical", "details": "for KF moisture result: hygroscopicity sample", "procedure": "(§1) The hexahydrate produced in Example 1 was analysed as follows. Four desiccator cabinets were prepared to contain open dishes of the following saturated salt solutions, to achieve the following approximate relative humidities (RH).\n(§2) Dehydration of samples was carried out by storing them over silica gel or over P2O5 at reduced pressure (65 mm Hg). All studies were performed at ambient laboratory temperature (15-22° C.).\nPre-equilibrated weighing bottles and lids (stored at 33% RH for a minimum of 24 hours) were weighed on a tared 5-figure analytical balance, and the weight recorded. To these the hydrate was added (approx 2 g), the weight recorded and the difference (the accurate weight of the drug substance) calculated. The weighing bottles, lids and contents were then transferred to the 33% RH cabinet, with the lids removed and placed to the side.\nAt appropriate times, the lids were replaced and the weight measured. After weighing, the samples were gently agitated and placed back in the 33% RH cabinet, again with the lid removed and placed to one side. This process continued until all % weight changes for all samples were seen to have reached stable end-points. […]. When stable end-points were observed, the samples were stepped up to the next % RH cabinet by transferring the drug to pre-equilibrated weighing bottles, recording their weight as before. Samples were stored progressively at 33% RH, 60% RH, 75% RH and 95% RH.\n(§3) Water contents were measured by coulometric KF (Karl Fischer) titration."}, "[2]": {"assay": "Dehydration/re-hydration study (weight change over desiccants, then 33-95% RH, KF water content)", "type": "physicochemical", "procedure": "as §1, §2\nDuring this study, samples were dispensed to pre-equilibrated weighing bottles as in the hygroscopicity study, and were then stored over silica gel without reduced pressure, then over […] under reduced pressure (65 mm Hg) to dehydrate the hydrate. Once a stable weight was achieved over P2O5, samples were re-hydrated by storing them at 33% RH to 95% RH, in parallel with the hygroscopicity study as described above.\nas §3"}},
  "note": "Marks after values point to notes of the source that are not given here.",
  "data": [
    {"smiles": "COc1cc2c(cc1OC)CN(CCc1ccc(NC(=O)c3cc(OC)c(OC)cc3NC(=O)c3cnc4ccccc4c3)cc1)CC2", "note": "[Example 1, Quinoline-3-carboxylic acid (2-{4-[2-(6,7-dimethoxy-3,4-dihydro-1H-isoquinolin-2-yl)-ethyl]-phenylcarbamoyl}-4,5-dimethoxy-phenyl)-amide]", "values": [
      {"measurement": "Cumulative % change Hygroscopicity", "setting": "[1]; 33% RH, tabulated time 1147.25 h (actual: minus 1144 h)", "value": "−0.17* %"},
      {"measurement": "Cumulative % change Hygroscopicity", "setting": "[1]; 33% RH, tabulated time 1150.75 h (actual: minus 1144 h)", "value": "−0.22", "unit": "%"},
      {"measurement": "Cumulative % change Hygroscopicity", "setting": "[1]; 33% RH, tabulated time 1168.00 h (actual: minus 1144 h)", "value": "−0.47", "unit": "%"},
      {"measurement": "Cumulative % change Hygroscopicity", "setting": "[1]; 33% RH, tabulated time 1240.75 h (actual: minus 1144 h)", "value": "−0.37", "unit": "%"},
      {"measurement": "Cumulative % change Hygroscopicity", "setting": "[1]; 33% RH, tabulated time 1268.50 h (actual: minus 1144 h)", "value": "−0.42", "unit": "%"},
      {"measurement": "Cumulative % change Hygroscopicity", "setting": "[1]; 33% RH, tabulated time 1312.50 h (actual: minus 1144 h)", "value": "−0.49", "unit": "%"},
      {"measurement": "Cumulative % change Hygroscopicity", "setting": "[1]; 33% RH, tabulated time 1431.25 h (actual: minus 1144 h)", "value": "−0.63", "unit": "%"},
      {"measurement": "Cumulative % change Hygroscopicity", "setting": "[1]; 33% RH, tabulated time 1502.25 h (actual: minus 1144 h)", "value": "−0.51", "unit": "%"},
      {"measurement": "Cumulative % change Hygroscopicity", "setting": "[1]; 33% RH, tabulated time 1672.50 h (actual: minus 1144 h)", "value": "−0.70", "unit": "%"},
      {"measurement": "Cumulative % change Hygroscopicity", "setting": "[1]; 33% RH, tabulated time 1741.50 h (actual: minus 1144 h)", "value": "−0.76", "unit": "%"},
      {"measurement": "hygroscopicity on storage at progressively higher RH values", "setting": "[1]; 33% to 95% RH, ambient temperature", "value": "no evidence of hygroscopicity"},
      {"measurement": "Cumulative % change Hygroscopicity", "setting": "[1]; 60% RH, tabulated time 1744.50 h (actual: minus 1144 h)", "value": 0.12, "unit": "%"},
      {"measurement": "Cumulative % change Hygroscopicity", "setting": "[1]; 60% RH, tabulated time 1746.50 h (actual: minus 1144 h)", "value": 0.13, "unit": "%"},
      {"measurement": "Cumulative % change Hygroscopicity", "setting": "[1]; 60% RH, tabulated time 1762.50 h (actual: minus 1144 h)", "value": 0.08, "unit": "%"},
      {"measurement": "Cumulative % change Hygroscopicity", "setting": "[1]; 60% RH, tabulated time 1835.75 h (actual: minus 1144 h)", "value": 0.27, "unit": "%"},
      {"measurement": "Cumulative % change Hygroscopicity", "setting": "[1]; 60% RH, tabulated time 1932.25 h (actual: minus 1144 h)", "value": 0.37, "unit": "%"},
      {"measurement": "Cumulative % change Hygroscopicity", "setting": "[1]; 60% RH, tabulated time 2101.50 h (actual: minus 1144 h)", "value": 0.56, "unit": "%"},
      {"measurement": "Cumulative % change Hygroscopicity", "setting": "[1]; 60% RH, tabulated time 2147.75 h (actual: minus 1144 h)", "value": 0.34, "unit": "%"},
      {"measurement": "Cumulative % change Hygroscopicity", "setting": "[1]; 60% RH, tabulated time 2273.75 h (actual: minus 1144 h)", "value": 0.34, "unit": "%"},
      {"measurement": "Cumulative % change Hygroscopicity", "setting": "[1]; 60% RH, tabulated time 2410.25 h (actual: minus 1144 h)", "value": 0.27, "unit": "%"},
      {"measurement": "Cumulative % change Hygroscopicity", "setting": "[1]; 75% RH, tabulated time 2417.25 h (actual: minus 1144 h)", "value": 0.87, "unit": "%"},
      {"measurement": "Cumulative % change Hygroscopicity", "setting": "[1]; 75% RH, tabulated time 2434.25 h (actual: minus 1144 h)", "value": 0.88, "unit": "%"},
      {"measurement": "Cumulative % change Hygroscopicity", "setting": "[1]; 75% RH, tabulated time 2441.25 h (actual: minus 1144 h)", "value": 0.88, "unit": "%"},
      {"measurement": "Cumulative % change Hygroscopicity", "setting": "[1]; 75% RH, tabulated time 2482.00 h (actual: minus 1144 h)", "value": 0.92, "unit": "%"},
      {"measurement": "Cumulative % change Hygroscopicity", "setting": "[1]; 75% RH, tabulated time 2577.75 h (actual: minus 1144 h)", "value": 1.00, "unit": "%"},
      {"measurement": "Cumulative % change Hygroscopicity", "setting": "[1]; 75% RH, tabulated time 2609.75 h (actual: minus 1144 h)", "value": 0.96, "unit": "%"},
      {"measurement": "Cumulative % change Hygroscopicity", "setting": "[1]; 75% RH, tabulated time 2681.25 h (actual: minus 1144 h)", "value": 1.08, "unit": "%"},
      {"measurement": "Cumulative % change Hygroscopicity", "setting": "[1]; 75% RH, tabulated time 2770.25 h (actual: minus 1144 h)", "value": 1.01, "unit": "%"},
      {"measurement": "Cumulative % change Hygroscopicity", "setting": "[1]; 75% RH, tabulated time 2817.75 h (actual: minus 1144 h)", "value": 1.09, "unit": "%"},
      {"measurement": "Cumulative % change Hygroscopicity", "setting": "[1]; 95% RH, tabulated time 2825.25 h (actual: minus 1144 h)", "value": 1.85, "unit": "%"},
      {"measurement": "Cumulative % change Hygroscopicity", "setting": "[1]; 95% RH, tabulated time 2841.75 h (actual: minus 1144 h)", "value": 2.23, "unit": "%"},
      {"measurement": "Cumulative % change Hygroscopicity", "setting": "[1]; 95% RH, tabulated time 2915.75 h (actual: minus 1144 h)", "value": 2.57, "unit": "%"},
      {"measurement": "Cumulative % change Hygroscopicity", "setting": "[1]; 95% RH, tabulated time 2937.75 h (actual: minus 1144 h)", "value": 2.71, "unit": "%"},
      {"measurement": "Cumulative % change Hygroscopicity", "setting": "[1]; 95% RH, tabulated time 2991.25 h (actual: minus 1144 h)", "value": 2.82, "unit": "%"},
      {"measurement": "Cumulative % change Hygroscopicity", "setting": "[1]; 95% RH, tabulated time 3082.25 h (actual: minus 1144 h)", "value": 3.28, "unit": "%"},
      {"measurement": "Cumulative % change Hygroscopicity", "setting": "[1]; 95% RH, tabulated time 3130.00 h (actual: minus 1144 h)", "value": 3.51, "unit": "%"},
      {"measurement": "Cumulative % change Hygroscopicity", "setting": "[1]; 95% RH, tabulated time 3182.25 h (actual: minus 1144 h)", "value": 3.39, "unit": "%"},
      {"measurement": "Cumulative % change Hygroscopicity", "setting": "[1]; 95% RH, tabulated time 3252.25 h (actual: minus 1144 h)", "value": 3.62, "unit": "%"},
      {"measurement": "Cumulative % change Hygroscopicity", "setting": "[1]; 95% RH, tabulated time 3350.25 h (actual: minus 1144 h)", "value": 3.65, "unit": "%"},
      {"measurement": "Cumulative % change Hygroscopicity", "setting": "[1]; 95% RH, tabulated time 3422.25 h (actual: minus 1144 h)", "value": 3.64, "unit": "%"},
      {"measurement": "Cumulative % change Hygroscopicity", "setting": "[1]; 95% RH, tabulated time 3636.25 h (actual: minus 1144 h)", "value": 4.12, "unit": "%"},
      {"measurement": "Cumulative % change Hygroscopicity", "setting": "[1]; 95% RH, tabulated time 4332.75 h (actual: minus 1144 h)", "value": 4.45, "unit": "%"},
      {"measurement": "weight increase between storage at 33% RH and end of storage at 75% RH", "setting": "[1]; both re-hydrated and untreated samples", "value": "less than 2 % (absolute)"},
      {"measurement": "KF moisture result", "setting": "[1]; 95% RH, tabulated time 4332.75 h (end)", "value": "(15.35) % w/w"},
      {"measurement": "KF moisture result", "setting": "[1]; printed in first 33% RH row (start of study)", "value": "(12.45) % w/w"},
      {"measurement": "Cumulative % change Dehydration/Rehydration", "setting": "[2]; 60% RH, cumulative time 1744.50 h", "value": 0.19, "unit": "%"},
      {"measurement": "Cumulative % change Dehydration/Rehydration", "setting": "[2]; 60% RH, cumulative time 1746.50 h", "value": 0.31, "unit": "%"},
      {"measurement": "Cumulative % change Dehydration/Rehydration", "setting": "[2]; 60% RH, cumulative time 1762.50 h", "value": 0.30, "unit": "%"},
      {"measurement": "Cumulative % change Dehydration/Rehydration", "setting": "[2]; 60% RH, cumulative time 1835.75 h", "value": 0.54, "unit": "%"},
      {"measurement": "Cumulative % change Dehydration/Rehydration", "setting": "[2]; 60% RH, cumulative time 1932.25 h", "value": 0.64, "unit": "%"},
      {"measurement": "Cumulative % change Dehydration/Rehydration", "setting": "[2]; 60% RH, cumulative time 2101.50 h", "value": 0.86, "unit": "%"},
      {"measurement": "Cumulative % change Dehydration/Rehydration", "setting": "[2]; 60% RH, cumulative time 2147.75 h", "value": 0.62, "unit": "%"},
      {"measurement": "Cumulative % change Dehydration/Rehydration", "setting": "[2]; 60% RH, cumulative time 2273.75 h", "value": 0.61, "unit": "%"},
      {"measurement": "Cumulative % change Dehydration/Rehydration", "setting": "[2]; 60% RH, cumulative time 2410.25 h", "value": 0.51, "unit": "%"},
      {"measurement": "Cumulative % change Dehydration/Rehydration", "setting": "[2]; 75% RH, cumulative time 2417.25 h", "value": 1.18, "unit": "%"},
      {"measurement": "Cumulative % change Dehydration/Rehydration", "setting": "[2]; 75% RH, cumulative time 2434.25 h", "value": 1.21, "unit": "%"}
    ]}
  ]
}
